{"source": "paper PMC5295395", "about": "“Inhibition of PlexA1-mediated brain tumor growth and tumor-associated angiogenesis using a transmembrane domain targeting peptide” (Oncotarget, 2016)", "key": {"NRP1 TMD": {"test_system": "NRP1 TMD", "experiment": "surface plasmon resonance (SPR, Biacore) with NRP1 TMD", "format": "binding", "conditions": "Biacore 2000, 20°C, streptavidin CM5 chip, 10 mM HEPES pH 7.4, 150 mM NaCl, 0.005% P20, 3 mM LDAO, flow 5 μl/min", "description": "A surface plasmon resonance (SPR, Biacore) analysis was also conducted with a synthetic biotinylated PlexA1 peptide immobilized on the chip. […] Due to the high hydrophobic nature and difficulty to produce TMD peptides we only performed this experiment with TMD peptides for which we had experience of successful synthesis. […]\nassigned to the “highest Plxna1” group and conversely (Abcam, ab32960-100) was added to the sections in those with a Plxna1 expression below the median to the blocking solution at 4°C overnight at a dilution of 1/100.\n“lowest Plxna1” group. […]\nFor the “TCGA dataset” [50, 51], data were The tissue was rinsed with PBS (3 × 5 minutes) and downloaded from the TCGA data portal (https://tcga- then the endogenous peroxidases were blocked with 1% data.nci.nih.gov/tcga/tcgaHome2.jsp; NCI, USA). RMA H2O2 solution (Sigma, #H1009) in methanol solution normalized gene expression profiles measured with during 20 minutes. […]\nFactor (recombinant human) 0.1 ng/ml, Basic Fibroblast RNA was treated with DNase I (Invitrogen) and reverse Growth Factor (recombinant human) 1 ng/ml, Heparin 90 transcribed using the High Capacity cDNA RT Kit μg/ml, Hydrocortisone 1 μg / ml. […] Samples were analyzed using […]"}, "PlexA1-NRP1 interactions": {"test_system": "PlexA1-NRP1 interactions", "experiment": "proximity ligation assay on U118MG tumor sections", "format": "in vivo, human cells in mouse", "conditions": "proximity ligation assay on tumor tissue, treated mice; p = 0.0051, Mann Whitney", "description": "(§1) To address the biological consequences of MTP-PlexA1-mediated inhibition of PlexA1 we used the U118MG-Luc glioma cell line genetically engineered to express the luciferase reporter gene. […] Cells were then grafted subcutaneously and tumor growth was monitored every 5 days for a total period of 20 days. […] The quantitative analysis of the cumulated luminescent signal acquired all along the protocol confirmed the strong reduction of tumor development translating into a marked 75% reduction of the averaged luminescent signal at the end point (Figure 6C). […] In order to clarify the mechanism by which MTP-PlexA1 is exerting tumor growth inhibition we collected tumors and analyzed them histologically.\n(§2) (B) Representative photographs illustrating the kinetic of tumor growth over 20 days in the two experimental groups. […] (D) Waterfall plot of best response representing the percent change in tumor volume of individual treated animals (grey bars, n = 10) compared to the average tumor volume increased determined in the control group (dark bars, n = 10). […] (F) Representative microphotographs and related quantification of PH3 positive cells in tumor slices (G) Representative microphotographs and related quantification of CD31 positive regions in tumor slices (% CD31 per μm² of tumors)."}, "[1]": {"test_system": "tumor-associated blood vessels (CD31)", "experiment": "CD31 immunostaining of U118MG-Luc xenograft tumor sections", "format": "in vivo, mouse", "conditions": "vs control; p = 0.0436, Mann Whitney", "description": "as §1, §2"}}}
{"sequence": "TLPAIVGIGGGGGLLLLVIVAVLIAYKRK [MTP-PlexA1, synthetic transmembrane peptide mimicking the TMD of PlexA1]", "values": [{"measurement": "interaction of immobilized biotinylated PlexA1 TMD peptide with NRP1", "setting": "NRP1 TMD", "value": "significantly interacted with NRP1"}, {"measurement": "change of PlexA1-NRP1 interactions in tumor sections", "setting": "PlexA1-NRP1 interactions", "value": "−48.5", "unit": "%"}, {"measurement": "reduction of tumor-associated blood vessel density (CD31)", "setting": "[1]", "value": 11.4, "unit": "%"}]}
